Experimental findings from patent publication US12371428B2 (Exelixis, Inc., priority 2019, dated 2025) are described below.

The target of assay [1] is Met (phospho-Met, HGF-stimulated PC-3 prostate cancer cells) (Homo sapiens (Human), UniProt P08581). Kind of assay: Met autophosphorylation ELISA in PC-3 cells (Example F). It is filed as cell-based. As to conditions: cellular activity; Met autophosphorylation ELISA in PC-3 cells; read-out: c-Met IC50. An outline of the steps:
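Sandwich ELISA for phospho-Met (panTyr) in PC-3 lysates. Cells starved 3 h serum-free, compound 1 h (8-pt curve, 0.3% DMSO), HGF 100 ng/mL 10 min. 100% = HGF + DMSO; 0% = HGF + reference inhibitor. IC50 by 4-parameter fit.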

Assay [2] addresses Human MET (residues 956-1390) (Homo sapiens (Human), UniProt P08581). Kind of assay: Human Met kinase assay, HTRF KinEase (Example D-2). It is filed as biochemical. As to conditions: protocol of Example D-2 (other compounds); read-out: c-Met IC50. An outline of the steps:
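IC50 values come from a 4-parameter logistic fit of the […] fluorescence ratio, set between DMSO (100%) and reference compound at 1 μM (0%). Reactions held MET 956-1390 at 0.1 ng/well, ATP at Km, biotinylated peptide, 5 mM MgCl2, 1 mM MnCl2, 1 mM DTT and 3% DMSO, and ran 40 min at room temperature before streptavidin-XL665/Eu-antibody detection.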

Assay [3] concerns the target AXL (phospho-AXL, Gas6-stimulated A-172 glioblastoma cells) (Homo sapiens (Human), UniProt P30530). Kind of assay: AXL autophosphorylation ELISA in A-172 cells (Example E). The settings on record: cellular activity; AXL autophosphorylation ELISA in A-172 cells; read-out: Axl IC50. It is filed as cell-based. An outline of the steps: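 Phospho-AXL was measured by ELISA in lysates of Gas6-stimulated A-172 cells, starved 24 h in serum-free medium and exposed 1 h to an 8-point compound dilution at 0.3% DMSO.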
(In an ELISA, binding on a coated surface is turned into a signal by an enzyme label.)

Human MET (residues 956-1390), sequence (P08581 956-1390): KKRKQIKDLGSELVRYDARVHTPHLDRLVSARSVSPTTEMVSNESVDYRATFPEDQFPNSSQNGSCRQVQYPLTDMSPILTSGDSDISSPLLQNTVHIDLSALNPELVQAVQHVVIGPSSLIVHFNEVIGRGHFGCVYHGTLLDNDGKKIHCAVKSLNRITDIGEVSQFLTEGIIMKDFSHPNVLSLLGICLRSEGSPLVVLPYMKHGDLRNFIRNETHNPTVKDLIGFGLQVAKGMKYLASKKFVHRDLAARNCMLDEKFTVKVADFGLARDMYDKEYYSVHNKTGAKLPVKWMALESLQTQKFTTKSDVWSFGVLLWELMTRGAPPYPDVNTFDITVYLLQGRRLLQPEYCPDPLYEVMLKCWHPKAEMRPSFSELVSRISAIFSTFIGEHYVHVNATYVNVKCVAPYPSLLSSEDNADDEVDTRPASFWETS
Met (phospho-Met, HGF-stimulated PC-3 prostate cancer cells), sequence (P08581 25-1390): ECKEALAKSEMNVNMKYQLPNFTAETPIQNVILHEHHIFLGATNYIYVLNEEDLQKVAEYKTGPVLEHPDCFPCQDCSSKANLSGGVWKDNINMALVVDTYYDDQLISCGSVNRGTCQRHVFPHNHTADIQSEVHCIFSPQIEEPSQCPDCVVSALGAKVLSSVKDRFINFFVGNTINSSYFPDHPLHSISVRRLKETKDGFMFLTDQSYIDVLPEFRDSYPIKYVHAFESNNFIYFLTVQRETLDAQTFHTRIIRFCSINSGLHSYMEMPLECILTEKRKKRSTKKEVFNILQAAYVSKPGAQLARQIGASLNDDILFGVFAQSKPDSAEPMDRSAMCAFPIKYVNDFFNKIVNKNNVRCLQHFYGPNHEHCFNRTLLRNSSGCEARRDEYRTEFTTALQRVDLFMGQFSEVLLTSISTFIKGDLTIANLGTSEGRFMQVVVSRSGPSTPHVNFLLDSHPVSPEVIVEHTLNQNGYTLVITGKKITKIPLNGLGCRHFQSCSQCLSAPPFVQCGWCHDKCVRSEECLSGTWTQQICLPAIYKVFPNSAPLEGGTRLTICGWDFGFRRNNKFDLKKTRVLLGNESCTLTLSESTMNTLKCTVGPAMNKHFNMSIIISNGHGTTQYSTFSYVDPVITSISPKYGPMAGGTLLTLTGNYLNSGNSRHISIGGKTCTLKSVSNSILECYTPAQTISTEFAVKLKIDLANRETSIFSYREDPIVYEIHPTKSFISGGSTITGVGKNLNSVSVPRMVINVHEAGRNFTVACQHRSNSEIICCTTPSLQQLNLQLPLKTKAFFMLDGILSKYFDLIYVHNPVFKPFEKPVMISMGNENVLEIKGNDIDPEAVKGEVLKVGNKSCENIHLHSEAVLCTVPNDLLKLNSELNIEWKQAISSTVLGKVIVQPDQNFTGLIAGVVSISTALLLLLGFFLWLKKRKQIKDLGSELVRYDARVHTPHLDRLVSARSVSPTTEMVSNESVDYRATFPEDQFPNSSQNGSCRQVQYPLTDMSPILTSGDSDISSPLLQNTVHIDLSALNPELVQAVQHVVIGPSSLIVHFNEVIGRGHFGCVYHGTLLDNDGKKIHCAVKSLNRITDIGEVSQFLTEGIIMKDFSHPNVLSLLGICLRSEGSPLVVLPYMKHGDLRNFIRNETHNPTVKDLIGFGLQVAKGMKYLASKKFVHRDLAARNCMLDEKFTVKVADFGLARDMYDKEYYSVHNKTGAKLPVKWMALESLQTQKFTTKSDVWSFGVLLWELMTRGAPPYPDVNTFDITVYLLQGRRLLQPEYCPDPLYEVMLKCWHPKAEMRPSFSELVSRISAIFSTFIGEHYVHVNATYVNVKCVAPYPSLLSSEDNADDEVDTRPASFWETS
AXL (phospho-AXL, Gas6-stimulated A-172 glioblastoma cells), sequence (P30530 26-894): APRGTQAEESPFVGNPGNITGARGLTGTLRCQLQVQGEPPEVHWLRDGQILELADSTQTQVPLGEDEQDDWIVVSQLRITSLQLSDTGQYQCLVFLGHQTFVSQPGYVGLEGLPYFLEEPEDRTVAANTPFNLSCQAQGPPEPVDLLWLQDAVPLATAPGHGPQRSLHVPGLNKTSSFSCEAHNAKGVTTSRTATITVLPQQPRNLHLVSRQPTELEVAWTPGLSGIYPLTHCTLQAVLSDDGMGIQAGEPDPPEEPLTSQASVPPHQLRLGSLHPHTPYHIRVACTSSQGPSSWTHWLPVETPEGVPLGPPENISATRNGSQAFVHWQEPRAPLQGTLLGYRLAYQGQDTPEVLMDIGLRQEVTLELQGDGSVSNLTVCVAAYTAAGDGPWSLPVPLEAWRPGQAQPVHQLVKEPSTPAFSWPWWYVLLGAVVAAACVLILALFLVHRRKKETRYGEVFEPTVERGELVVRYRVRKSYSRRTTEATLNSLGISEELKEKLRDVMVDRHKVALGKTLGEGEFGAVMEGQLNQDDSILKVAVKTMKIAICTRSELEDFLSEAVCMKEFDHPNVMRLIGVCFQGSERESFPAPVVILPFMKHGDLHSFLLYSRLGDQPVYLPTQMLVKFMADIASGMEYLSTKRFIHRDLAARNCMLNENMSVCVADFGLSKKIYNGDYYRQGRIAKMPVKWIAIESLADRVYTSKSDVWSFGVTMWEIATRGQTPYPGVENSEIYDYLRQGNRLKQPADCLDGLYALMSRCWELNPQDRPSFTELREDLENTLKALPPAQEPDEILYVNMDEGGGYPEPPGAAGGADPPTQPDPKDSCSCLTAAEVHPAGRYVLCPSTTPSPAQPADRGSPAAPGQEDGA

As usually defined, the IC50 is the concentration that inhibits the measured activity by half. As to `COc1ccc2nccc(Oc3ccc(NC(=O)c4ncc(C)n(-c5ccc(F)cc5)c4=O)cc3)c2n1` [Compound 378, 4-(4-fluorophenyl)-N-[4-[(6-methoxy-1,5-naphthyridin-4-yl)oxy]phenyl]-5-methyl-3-oxopyrazine-2-carboxamide], the IC50 in assay [1] and in assay [2] was less than 0.1 µM throughout.
For the compound `COc1cc2nccc(Oc3ccc(NC(=O)c4nccn(-c5ccc(F)cc5)c4=O)cc3F)c2nc1OC` [Compound 379, N-[4-[(6,7-dimethoxy-1,5-naphthyridin-4-yl)oxy]-3-fluorophenyl]-4-(4-fluorophenyl)-3-oxopyrazine-2-carboxamide], the IC50 in assay [1] and in assay [2] was less than 0.1 µM throughout.
Turning to `COc1ccc2nccc(Oc3ccc(NC(=O)c4nccn(-c5ccc(F)cc5)c4=O)cc3F)c2n1` [Compound 380, N-[3-fluoro-4-[(6-methoxy-1,5-naphthyridin-4-yl)oxy]phenyl]-4-(4-fluorophenyl)-3-oxopyrazine-2-carboxamide], the IC50 in assay [1] and in assay [2] was less than 0.1 µM throughout.
Take `COc1cnc2c(Oc3ccc(NC(=O)c4nccn(-c5ccc(F)cc5)c4=O)cc3F)ccnc2c1` [Compound 381, N-[3-fluoro-4-[(7-methoxy-1,5-naphthyridin-4-yl)oxy]phenyl]-4-(4-fluorophenyl)-3-oxopyrazine-2-carboxamide]: the IC50 in assay [1] and in assay [2] was less than 0.1 µM each time.
As for `COc1cnc2c(Oc3ccc(NC(=O)c4nccn(-c5ccc(F)cc5)c4=O)cc3)ccnc2c1` [Compound 382, 4-(4-fluorophenyl)-N-[4-[(7-methoxy-1,5-naphthyridin-4-yl)oxy]phenyl]-3-oxopyrazine-2-carboxamide], the IC50 in assay [1] and in assay [2] was less than 0.1 µM in each case.
For the compound `COc1ccc2nccc(Oc3ccc(NC(=O)c4nccn(-c5ccc(F)cc5)c4=O)cc3)c2n1` [Compound 383, 4-(4-fluorophenyl)-N-[4-[(6-methoxy-1,5-naphthyridin-4-yl)oxy]phenyl]-3-oxopyrazine-2-carboxamide], the IC50 in assay [1] and in assay [2] was less than 0.1 µM throughout.
Consider `COc1cc2nccc(Oc3ccc(NC(=O)c4nccn(-c5ccc(F)cc5)c4=O)cc3)c2nc1OC` [Compound 384, N-[4-[(6,7-dimethoxy-1,5-naphthyridin-4-yl)oxy]phenyl]-4-(4-fluorophenyl)-3-oxopyrazine-2-carboxamide], for which the IC50 in assay [1] and in assay [2] was less than 0.1 µM throughout.
As to `COc1cc2nccc(Oc3ccc(NC(=O)c4ccnn(-c5ccc(F)cc5)c4=O)cc3F)c2nc1OC` [Compound 386, N-[4-[(6,7-dimethoxy-1,5-naphthyridin-4-yl)oxy]-3-fluorophenyl]-2-(4-fluorophenyl)-3-oxopyridazine-4-carboxamide], the IC50 in assay [1] and in assay [2] was less than 0.1 µM each time.
Regarding `COc1cc2nccc(Oc3ccc(NC(=O)c4cn(C)c(C)c(-c5ccc(F)cc5)c4=O)cc3Cl)c2nc1OC` [Compound 388, N-[3-chloro-4-[(6,7-dimethoxy-1,5-naphthyridin-4-yl)oxy]phenyl]-5-(4-fluorophenyl)-1,6-dimethyl-4-oxopyridine-3-carboxamide], the IC50 in assay [1] and in assay [2] was less than 0.1 µM throughout.
Regarding `COc1cc2nccc(Oc3ccc(NC(=O)c4cn(C)c(C)c(-c5ccc(F)cc5)c4=O)c(F)c3)c2nc1OC` [Compound 389, N-[4-[(6,7-dimethoxy-1,5-naphthyridin-4-yl)oxy]-2-fluorophenyl]-5-(4-fluorophenyl)-1,6-dimethyl-4-oxopyridine-3-carboxamide], the IC50 in assay [1] is less than 0.1 µM; in assay [2] it was greater than 0.3 µM.
For `COc1cc2nccc(Oc3ccc(NC(=O)c4cn(C)c(C)c(-c5ccc(F)cc5)c4=O)c(F)c3F)c2nc1OC` [Compound 390, N-[4-[(6,7-dimethoxy-1,5-naphthyridin-4-yl)oxy]-2,3-difluorophenyl]-5-(4-fluorophenyl)-1,6-dimethyl-4-oxopyridine-3-carboxamide], the IC50 in assay [1] and in assay [2] was less than 0.1 µM throughout.
As to `COc1cc2nccc(Oc3cc(F)c(NC(=O)c4cn(C)c(C)c(-c5ccc(F)cc5)c4=O)cc3F)c2nc1OC` [Compound 391, N-[4-[(6,7-dimethoxy-1,5-naphthyridin-4-yl)oxy]-2,5-difluorophenyl]-5-(4-fluorophenyl)-1,6-dimethyl-4-oxopyridine-3-carboxamide], the IC50 in assay [1] and in assay [2] was less than 0.1 µM throughout.
Take `COc1cc2nccc(Oc3c(F)cc(NC(=O)c4cn(C)c(C)c(-c5ccc(F)cc5)c4=O)cc3F)c2nc1OC` [Compound 392, N-[4-[(6,7-dimethoxy-1,5-naphthyridin-4-yl)oxy]-3,5-difluorophenyl]-5-(4-fluorophenyl)-1,6-dimethyl-4-oxopyridine-3-carboxamide]: the IC50 in assay [1] and in assay [2] was less than 0.1 µM throughout.
Turning to `COc1cc2nccc(Oc3ccc(NC(=O)c4ncc(C)n(-c5ccc(F)cc5C)c4=O)cc3F)c2nc1OC` [Compound 393, N-[4-[(6,7-dimethoxy-1,5-naphthyridin-4-yl)oxy]-3-fluorophenyl]-4-(4-fluoro-2-methylphenyl)-5-methyl-3-oxopyrazine-2-carboxamide], the IC50 in assay [1] and in assay [2] was less than 0.1 µM each time.
Consider `COc1ccc2nccc(Oc3ccc(NC(=O)c4ncc(C)n(-c5ccc(F)cc5C)c4=O)cc3F)c2n1` [Compound 394, N-[3-fluoro-4-[(6-methoxy-1,5-naphthyridin-4-yl)oxy]phenyl]-4-(4-fluoro-2-methylphenyl)-5-methyl-3-oxopyrazine-2-carboxamide], for which the IC50 in assay [1] and in assay [2] was less than 0.1 µM in each case.
On to `COc1cc2nccc(Oc3ncc(NC(=O)c4cn(C5CC5)cc(-c5ccc(F)cc5)c4=O)cc3F)c2cc1OC` [Compound 399, 1-cyclopropyl-N-[6-(6,7-dimethoxyquinolin-4-yl)oxy-5-fluoropyridin-3-yl]-5-(4-fluorophenyl)-4-oxopyridine-3-carboxamide], for which the IC50 in assay [1], in assay [3] and in assay [2] was less than 0.1 µM in each case.
As to `COc1cc2nccc(Oc3ncc(NC(=O)c4cn(C5CN(C)C5)cc(-c5ccc(F)cc5)c4=O)cc3F)c2cc1OC` [Compound 400, N-[6-(6,7-dimethoxyquinolin-4-yl)oxy-5-fluoropyridin-3-yl]-5-(4-fluorophenyl)-1-(1-methylazetidin-3-yl)-4-oxopyridine-3-carboxamide], the IC50 in assay [1] and in assay [2] was less than 0.1 µM each time.
